According to paper PMC5362899, “Structural insights into the nucleotide base specificity of P2X receptors” (Scientific Reports, 2017):

Columns and labels:
[1] = molecular target: T1, zebrafish P2X4 (zfP2X4) WT (Danio rerio, UniProt F8W463); experiment: Two Electrode Voltage Clamp recording of Xenopus oocytes expressing zebrafish P2X4 WT; format: cell-based; conditions: 1 mM nucleotide for 10 sec after prior application of 100 μM ATP; holding potential −70 mV; n = 4
T1 construct: The cRNAs encoding zebrafish P2X4 (NP_705939; WT); expressed in transfected cells; host or cells: Xenopus laevis oocytes injected with cRNA from pGEMHE
T1 sequence (F8W463 1-389): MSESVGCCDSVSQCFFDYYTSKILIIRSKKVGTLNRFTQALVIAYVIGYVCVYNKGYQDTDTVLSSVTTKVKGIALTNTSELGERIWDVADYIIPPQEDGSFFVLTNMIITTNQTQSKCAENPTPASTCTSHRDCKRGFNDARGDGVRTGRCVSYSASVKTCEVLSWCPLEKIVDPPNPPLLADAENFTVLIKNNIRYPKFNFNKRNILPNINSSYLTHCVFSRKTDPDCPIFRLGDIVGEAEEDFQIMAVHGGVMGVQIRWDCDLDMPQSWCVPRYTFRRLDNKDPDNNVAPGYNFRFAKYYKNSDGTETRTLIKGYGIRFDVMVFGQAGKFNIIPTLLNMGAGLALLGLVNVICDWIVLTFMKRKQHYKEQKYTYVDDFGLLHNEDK
Description: To assess the nucleotide base specificity of zebrafish P2X4 (zfP2X4), we first performed Two Electrode Voltage Clamp (TEVC) recording of Xenopus oocytes. As shown previously, the initial “priming” application with a low concentration of ATP increases P2X receptors sensitivity to second or more applications of ligands, which is useful for evaluating the affinity of ligands. Therefore, we expressed zfP2X4 in oocytes and recorded the zfP2X4-associated currents evoked by the application of high concentrations (1 mM) of nucleoside triphosphates (ATP, CTP, GTP and UTP), following the prior application of 100 μM ATP.
Figure 1 Current responses of zebrafish P2X4 evoked by nucleoside triphosphates. (A–D) Representative currents of zebrafish P2X4 WT, evoked first by 100 μM ATP and then by (A) 1 mM ATP, (B) 1 mM CTP, (C) 1 mM GTP and (D) 1 mM UTP. Each nucleotide was applied for 10 sec. The holding potential was −70 mV.
(§1) The cRNAs encoding zebrafish P2X4 (NP_705939; WT) and rat P2X4 (NP_113782.1; WT and mutants) were transcribed from pGEMHE plasmids, using a mMessage mMachine® T7 ULTRA kit (Ambion, Huntingdon, Cambridgeshire, UK). Xenopus laevis oocytes were prepared, and RNA (100 ng for zebrafish P2X4, and 20 ng for rat P2X4) was injected into the oocytes. The oocytes were incubated at 18 °C in Barth’s solution, containing 88 mM NaCl, 1 mM KCl, 2.4 mM NaHCO3, 10 mM HEPES, 0.33 mM Ca(NO3)2, 0.41 mM CaCl2, and 0.82 mM MgSO4, pH 7.4, supplemented with 50 μg/ml gentamicin, and were used for recording after 2–3 days. Recording solutions contained 100 mM NaCl, 5 mM HEPES, 2 mM MgCl2, pH 7.3, and nucleoside triphosphates (ATP, CTP, GTP, and UTP), which were freshly prepared each day. Oocytes were held at −70 mV with a bath-clamp amplifier (OC-725C, Warner Co., USA), and macroscopic currents were recorded and analyzed using the pClamp 10 software (Molecular Devices, USA)[33][34]. We measured n = 4 for zebrafish P2X4 data and n = 7–9 for rat P2X4 data.

[2] = molecular target: T2, rat P2X4 WT (rWT) (Rattus norvegicus, UniProt P51577); experiment: Two-Electrode Voltage Clamp recording, rat P2X4 WT in Xenopus oocytes; format: cell-based; conditions: for nucleotide-evoked currents: GTP and UTP applied at 3 mM (Fig. S4); for EC50: oocytes held at −70 mV, n = 9, read-out: EC50 (evoked current, dose-response)
T2 construct: rat P2X4 (NP_113782.1; WT and mutants) were transcribed from pGEMHE plasmids; expressed in transfected cells; host or cells: Xenopus laevis oocytes injected with cRNA from pGEMHE
T2 sequence (P51577 1-388): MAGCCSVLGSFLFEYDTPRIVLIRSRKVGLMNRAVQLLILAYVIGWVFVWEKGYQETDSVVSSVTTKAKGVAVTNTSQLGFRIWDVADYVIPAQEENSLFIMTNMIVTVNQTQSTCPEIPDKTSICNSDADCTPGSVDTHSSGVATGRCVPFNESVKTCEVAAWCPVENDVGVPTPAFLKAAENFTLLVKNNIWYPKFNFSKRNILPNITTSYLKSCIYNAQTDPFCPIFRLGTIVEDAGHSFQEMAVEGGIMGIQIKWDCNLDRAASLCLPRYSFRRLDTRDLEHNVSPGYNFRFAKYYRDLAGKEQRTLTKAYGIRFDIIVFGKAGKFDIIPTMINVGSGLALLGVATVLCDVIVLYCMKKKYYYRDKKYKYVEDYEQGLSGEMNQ
Description: To further investigate the functional roles of the residues involved in the base recognition, T189 and R143, we performed an electrophysiological analysis with the rat P2X4, since its electrophysiological properties have been well established. We first assessed the functional role of T189 in zfP2X4 and introduced mutations at the equivalent residue of the rat P2X4 to create three mutants (^rT186A, ^rT186V and ^rT186S; the superscript “r” means rat P2X4). […] Therefore, we examined the ^rWT and the ^rT186S mutant.
Figure 4 Current responses of ^rWT, ^rT186S, ^rH140A and ^rH140R evoked by ATP and CTP. (A,B) Representative currents of ^rWT evoked by ATP (1–300 μM) (A) and CTP (10–10,000 μM) (B). (C,D) Representative currents of the ^rT186S mutant evoked by ATP (1–300 μM) (C) and CTP (10–10,000 μM) (D). (E,F) Representative currents of the ^rH140A mutant evoked by ATP (1–300 μM) (E) and CTP (10–10,000 μM) (F). (G,H) Representative currents of the ^rH140R mutant evoked by ATP (1–300 μM) (G) and CTP (10–10,000 μM) (H). (I–K) Concentration-response curves evoked by ATP and CTP in the ^rWT and the ^rT186S mutant (I), in the ^rWT and the ^rH140A mutant (J) and in the ^rWT and the ^rH140R mutant (K). Symbols are defined in the figure, and bars depict means ± SEM (n = 7–9).
as §1

Nc1ncnc2c1ncn2[C@@H]1O[C@H](COP(=O)(O)OP(=O)(O)OP(=O)(O)O)[C@@H](O)[C@H]1O [ATP, Adenosine 5-triphosphate]
zfP2X4-associated currents evoked by nucleoside triphosphate [1]: detected specific ATP- and CTP-evoked currents | nucleotide-evoked currents [2]: ATP- and CTP-evoked currents were detected | EC50 [2]: 16.2 ± 5.4 µM

Nc1ccn([C@@H]2O[C@H](COP(=O)(O)OP(=O)(O)OP(=O)(O)O)[C@@H](O)[C@H]2O)c(=O)n1 [CTP]
zfP2X4-associated currents evoked by nucleoside triphosphate [1]: detected specific ATP- and CTP-evoked currents | nucleotide-evoked currents [2]: ATP- and CTP-evoked currents were detected | EC50 [2]: 564 ± 170 µM

Nc1nc2c(ncn2[C@@H]2O[C@H](COP(=O)(O)OP(=O)(O)OP(=O)(O)O)[C@@H](O)[C@H]2O)c(=O)[nH]1 [GTP]
zfP2X4-associated currents evoked by nucleoside triphosphate [1]: not GTP- and UTP-evoked currents | nucleotide-evoked currents [2]: no GTP- and UTP-evoked currents were detected

O=c1ccn([C@@H]2O[C@H](COP(=O)(O)OP(=O)(O)OP(=O)(O)O)[C@@H](O)[C@H]2O)c(=O)[nH]1 [UTP]
zfP2X4-associated currents evoked by nucleoside triphosphate [1]: not GTP- and UTP-evoked currents | nucleotide-evoked currents [2]: no GTP- and UTP-evoked currents were detected
